Like-named read-outs stand apart in the source and are kept apart here.
Legend:
MEK4 [1] = molecular target: T1, MEK4 (Homo sapiens, UniProt P45985); assay: Upstate Biotechnology MEK4 assay system, inhibition of MEK4 kinase activity; assay type: biochemical; details: in vitro
T1 construct: purchased Upstate Biotechnology
T1 sequence (P45985 1-399): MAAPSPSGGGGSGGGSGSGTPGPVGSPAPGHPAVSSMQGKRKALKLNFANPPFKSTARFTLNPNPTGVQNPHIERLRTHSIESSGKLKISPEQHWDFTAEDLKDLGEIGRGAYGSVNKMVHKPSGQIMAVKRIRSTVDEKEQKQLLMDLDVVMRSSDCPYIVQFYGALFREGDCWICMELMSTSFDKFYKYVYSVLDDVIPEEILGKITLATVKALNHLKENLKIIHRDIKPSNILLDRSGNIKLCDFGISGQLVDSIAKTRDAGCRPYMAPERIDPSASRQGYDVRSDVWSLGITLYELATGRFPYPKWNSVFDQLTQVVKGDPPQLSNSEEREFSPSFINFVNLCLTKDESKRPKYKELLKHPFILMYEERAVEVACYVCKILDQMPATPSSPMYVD

MEK4 [2] = assay: Phosphorylation of MEK4 in vivo (TGFβ stimulated); assay type: cell-based
Experimental: Phosphorylation by MEK4 (FIG. 4A) and phosphorylation of MEK4 (FIG. 7) was assayed. The Upstate Biotechnology MEK4 assay system was used to measure inhibition of MEK4 activity. Phosphorylation of MEK4 in vivo was assayed using standard techniques.

[3] = test system: PCa cell lines (PC3, PC3-M, 1532CPTX, 1542CPTX, 1532NPTX, 1542NPTX); assay: Cell invasion assay of PCa cell lines (Examples 2 and 3); assay type: cell-based, human
Text: MEK expression was examined in six human prostate cancer (PCa) cell lines: PC3 and PC3-M metastatic PCa cells, 1532CPTX and 1542 CPTX immortalized localized PCa cells, and 1532 NPTX and 1542 NPTX immortalized normal epithelial cells. The last four cell lines are primary cells, are HPV transformed, and thus represent early stages of prostate carcinogenesis. They provide representative members of the metastatic phenotype, as well as members of early state phenotypes. […] All six cell lines also secrete as well as respond to TGFβ, a regulator of cell motility that plays a role in PCa cell invasiveness.
Assays were conducted using methods as described in Craft et al. (2008, Mol. Pharmocol., 73(1):235-242; herein incorporated by reference in its entirety).

MMP-2 = assay: Phase 2 trial, MMP-2 transcript by qRT/PCR in LCM normal prostate epithelial cells; assay type: in vivo, human; details: 2 mg genistein/kg/day
Experimental: Of 38 subjects completing the study, MMP-2 expression was analyzed in tissue from 12 genistein-treated subjects and 12 controls. […] MMP-2 expression was measured by removing normal prostate epithelial cells from intact fresh frozen prostate tissue by laser capture microdissection (LCM), isolating RNA, treating with DNase, assessing RNA quality by capillary electrophoresis, and measuring MMP-2 transcript levels by qRT/PCR (normalizing to GAPDH), using exon spanning primers.

[4] = test system: prostate epithelial cells; assay: Phase 2 trial, nuclear morphology of prostate epithelial cells; assay type: in vivo, human; details: genistein treated men vs controls
Text: Though morphologically “normal,” these cells are present within organs with PCa, have pre-cancer molecular changes, and represent an appropriate target cell type for therapy that inhibits a process associated with PCa progression, in this case, development of the metastatic phenotype. […] These findings are consistent with its effects in vitro and in mice.

[5] = Phase 2 trial, serious adverse events; assay type: in vivo, human; details: grade >/= 2 clinical toxicity, NCI Common Toxicity Criteria v 2.0; 12 subjects
[6] = test system: ER promoter-luciferase reporter vector construct; assay: ER promoter-luciferase reporter assay in MCF-7 cells; assay type: cell-based, human; details: 10 μM
Experimental: The genes were: TFF1 (trefoil factor 1; also known as pS2), PGR (progesterone receptor), and CPSD (cathepsin D). Gene expression was measured by isolating RNA, and performing real time quantitative reverse transcription/polymerase chain reaction (qRT/PCR), using exon spanning primers (purchased from Applied Biosystems). The expression of GAPDH was also measured, and used to normalize the expression of ER responsive genes. Data below are the mean±SD of a single experiment, performed in duplicate. […] Additionally, the ability of compound 46 to activate an ER promoter-luciferase reporter vector construct after transient transfection of the human ER positive breast cancer cell line, MCF-7, was evaluated (FIG. 31). […] “No associated control cells” were transfected with an identical vector construct that lacked the estrogen response element, i.e., noERE.

[7] = cited from earlier work
human PC3-M PCa cells = assay: Orthotopic PC3-M implantation metastasis model in athymic mice
[8] = 0, 100, 250 mg genistein/kg chow
[9] = Western blot, primary tumor tissue

phosphorylation of JNK3 by MEK4 (MEK4 [1]): inhibits phosphorylation of JNK3 by MEK4
blood concentration of total genistein (100 mg genistein/kg chow cohort): 290 ± 72 nM
blood concentration of total genistein (250 mg genistein/kg chow cohort): 1307 ± 507 nM
weight of mice (human PC3-M PCa cells; between cohorts): no difference
SMILES: O=c1c(-c2ccc(O)cc2)coc2cc(O)cc(O)c12 [genistein]
TGFβ increased MEK4 phosphorylation (MEK4 [2]): does not block such phosphorylation
cell invasion ([3]; early and late stage PCa cells): inhibits invasion of both early and late stage PCa cells
effect of genistein on invasiveness when MEK4 expression suppressed ([3]; in the presence of siMEK4): abrogated
MMP-2 transcript level, % of controls (mean±SEM) (MMP-2): 24±4.1%
increase in nuclear length [4]: 1.5±0.7%
increase in nuclear width [4]: 2.7±0.7%
increase in nuclear area ([4]; only a trend): 2.0±1.0%
serious adverse events, number [5]: 0
luciferase activity [6]: induced luciferase activity
tolerability ([7]; 2 to 8 mg genistein/kg, men with prostate cancer): well tolerated
peak concentration of free genistein ([7]; 2 to 8 mg genistein/kg): 66 to 170 nM
peak concentration of total genistein ([7]; 2 to 8 mg genistein/kg): 4.3 to 16.3 µM
clearance ([7]; dependence on body mass): not altered by body mass
blood genistein conjugated ([7]; in vivo): > 90%
halflife ([7]; in vivo): 15 to 22 h
metastasis (human PC3-M PCa cells; [8]): decreased metastasis
tumor volume (human PC3-M PCa cells; [8]): not tumor volume
level of total p38 MAP kinase protein (human PC3-M PCa cells; [9]): increased the level of total p38 MAP kinase protein
p38 MAP kinase phosphorylation (human PC3-M PCa cells; [9]): decreased its phosphorylation

— US8742141B2, “Inhibition and treatment of prostate cancer metastasis” (Northwestern University, priority 2008, dated 2014)
